# Laboratory results reported in patent US20240139125A1 (INDUSTRIAL COOPERATION FOUNDATION JEONBUK NATIONAL …, priority 2020, published 2024).
# “Also recorded” adds a separate entry of the source.
# What was measured:
# [1] = tested on: tumors derived from MDA-MB-231 cells; assay: Xenograft in nude mice; type: in vivo; details: MDA-MB-231 xenograft, 1 mg/kg BIA, 5 days a week, 25 days
# Description: FIG. 67C and FIG. 67D show the volume and weight of tumors derived from MDA-MB-231 cells injected into a nude mouse treated with a vehicle or 1 mg/kg BIA. (n=5 mice for each group). Data were expressed as mean±SD. ***p<0.001, ****p<0.0001, followed by binary ANOVA, followed by Bonferroni's post hoc test (C) or two-tailed unpaired t-test (B).
# Mice purchased 20-25 g of BALBc/Nude and conducted experiments after 1 week of preliminary breeding to adapt to the laboratory environment. This experiment was approved by the Animal Experiment Ethics Committee of Chonbuk National University (CBNU 201 5-064, CBNU 2016-56) and was carried out according to standard work instructions, and the conditions in the breeding room were kept constant temperature and relative humidity, a 12-hour contrast cycle, and water and feed were freely consumed. Experimental animals are transplanted subcutaneously with 5×10^6 cells per mouse using HT1080 cell line and MDA-MB-231 cell line, and after 7-10 days, mice forming tumor sizes of 100 mm^3 are randomly divided into control and experimental groups. The control group is injected with saline (including 10% DMSO) and the experimental group is injected with 1 mg/kg (10% DMSO) into the abdomen. The drug is given 5 days a week, and repeated for 4 weeks. […] The tumor size was measured with a caliper and calculated using the following formula: […]
# [2] = target: T1, binding of BI-1 and mTORC2 and ribosomes (Homo sapiens, UniProt P55061); assay: PLA, immunoprecipitation and gel filtration of BI-1/mTORC2/ribosome binding; type: cell-based
# T1 construct: expressed in transfected cells
# Description: The graph below quantifies the fine and bright spots (n=5 independent experiment). The scale bar represents 20 μm. Data were expressed as mean±SD. **p<0.01, ****p<0.0001, followed by a binary ANOVA, followed by Bonferroni's post hoc test.
# FIG. 62B is the result of PLA between RICTOR and the following proteins mTOR, RPL19 and RPS 16 in HT1080 cells treated with 10 μM BIA. The scale bar represents 20 μm. The graph on the right quantifies the fine and bright points (n=5 independent experiment). Data were expressed as mean±SD. **p<0.01, ***p<0.001, ****p<0.0001, followed by a binary ANOVA followed by Bonferroni's post hoc test.
# HT1080 cells knocked out of BI-1 (using 8 10 cm cell culture dishes for each sample) were temporarily transformed using HA-BI-1 (TMBIM6) plasmids. HT1080 cells knocked out of BI-1 were treated with 10 μM of 2E-1-2-Aminophenyl-3-3-nitrophenyl-2-propen-1-one (BIA). After 24 hours, CHAPS containing protease inhibitor cocktail and phosphatase inhibitor cocktail Cells were lysed in 1.0 ml of buffer (pH 7.4, 150 mM NaCl, 1 mM EDTA and 25 mM HEPES at 0.3% CHAPS). The cell lysate was filtered with a 0.45 μm syringe filter. […] 50 μL of each fraction was electrophoresis with SDS-PAGE and then detected with various antibodies. […]
# [3] = tested on: association between RICTOR and mTOR or between RICTOR and RPL19; assay: Proximity ligation assay in PANC-1 cells; type: cell-based; details: PLA
# Excerpt: The graph on the right quantifies the fine, bright points (n=5 independent experiment). The scale bar represents 20 μm. Data were expressed as mean±SD. **p<0.01, Bonferroni's post hoc test after binary ANOVA.
# SKBR3 = assay: Cell proliferation/viability with BIA, IC50 after 3 days; type: cell-based; details: Homo sapiens, SK-BR-3, 72 h; SKBR3 cells, treatment for 3 days
# BI-1 (TMBIM6) = target: T2, BI-1 (TMBIM6) (Homo sapiens, UniProt P55061); assay: G-CEPIAer ER lumen calcium indicator; type: cell-based; details: HT1080, 10 μM BIA, compared to untreated control cells
# T2 construct: endogenous in cells; host or cells: HT1080 cells transfected only with the G-CEPIAer indicator plasmid
# Description: FIG. 74B is a result of treating HT1080 cells with BIA 10 μM and observing the fluorescence intensity of G-CEPIAer designed to measure calcium concentration inside
# Since BI-1 regulates mTORC2 activation through ER Ca2+ release, the above results confirmed whether BIA inhibits Ca2+ release from BI-1.
# On the other hand, when BIA is treated, calcium inside ER increases because […] in ER inhibits calcium. This was expressed G-CEPIAer, which measures the calcium concentration inside ER, and metamorphed HT1080 cells using CEPIAer plasmid to create stable cells. This transfected cell can be used to detect only free calcium from ER via BI-1 (TMBIM6) based on the calcium channel-like nature of BI-1 (TMBIM6). By confirming the increase in fluorescence, it was possible to confirm the specificity of the BIA (see FIG. 74B).
# [4] = tested on: HT1080, MCF7, MDA-MB-231 and SKBR3 cell lines; assay: Cell proliferation and viability of cell line panel with BIA; type: cell-based; details: 5 μM BIA
# [5] = tested on: human breast cancer cells labeled with DiI dye; assay: Zebrafish tumor model; type: in vivo; details: 2 uM BIA, third day after transplantation
# MDA-MB-231 = assay: Cell proliferation/viability with BIA, IC50 after 3 days; type: cell-based; details: Homo sapiens, 72 h; MDA-MB-231 cells, treatment for 3 days
# T1 sequence (P55061 whole entry): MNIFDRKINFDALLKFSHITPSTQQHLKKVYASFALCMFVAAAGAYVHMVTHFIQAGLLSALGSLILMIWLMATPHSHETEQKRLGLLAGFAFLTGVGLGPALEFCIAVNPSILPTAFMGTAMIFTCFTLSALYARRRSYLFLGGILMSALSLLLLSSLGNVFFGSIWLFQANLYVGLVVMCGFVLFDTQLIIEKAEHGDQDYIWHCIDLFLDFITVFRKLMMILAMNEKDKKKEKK
# T2 sequence (P55061 whole entry): as above
structure (smiles),measurement,setting,value
"Nc1ccccc1C(=O)/C=C/c1cccc([N+](=O)[O-])c1 [BIA, 2E-1-2-Aminophenyl-3-3-nitrophenyl-2-propen-1-one]",tumor growth,[1],significantly impaired
same,protein interactions between mTORC2 and ribosomes or binding of BI-1 and mTORC2 and ribosomes,"[2]; HT1080 cells, PLA and immunoprecipitation",inhibited
same,co-elution pattern with mTORC2 components (mTOR and RICTOR) and ribosomes (RPL19),"[2]; gel filtration, BI-1 overexpressed HT1080 cells, BIA for 24 hours",delayed
same,association between RICTOR and mTOR or between RICTOR and RPL19,[3],reduced
same,IC50,SKBR3,2400 ± 400 nM
same,G-CEPIAer fluorescence intensity (ER calcium),BI-1 (TMBIM6),increased
same,proliferation and cell viability of all cell lines,[4],inhibited; also recorded: suppressed
same,movement of tumor cells away from the primary site,[5],remained at the injection site
same,IC50,MDA-MB-231,2600 ± 500 nM
